From US20250136617A1 (The Regents of the University of Colorado, A Body Corporate, priority 2022, published 2025)
Like-named read-outs stand apart in the source and are kept apart here.

How the values were obtained:
[1] = test system: CEM-CCRF human lymphoblast cells; assay: Transwell migration assay in CEM-CCRF lymphoblasts; format: cell-based
Experimental: Thus, to confirm CXCR4 functional activity, UCUF-728 was evaluated in a 96 w transwell migration assay in CEM human lymphoblast cells.
CEM-CCRF (ATCC CCL-119) were suspended in RPMI 1640 (Corning; 10-040-CV) at 5.0×10^5 cells/mL and allowed to incubate in cell culture incubator at 37° C. with 5% CO2 for one hour. […] Plates were reassembled and placed in a cell culture incubator at 37° C. with 5% CO2 for three hours. After incubation, Multi-Screen plate was disassembled and 100 μl of solution was collected from compound receiver tray and transferred to 96 well luminescent plate (Thermo Scientific; 265302) and an equal volume of ATPLite Istep luminescence reagent (Perkin Elmer, Waltham, MA; 6016731) was added to each well. Luminescence was measured using the CLARIOstar Plus (BMG LABTECH Inc., Cary, NC).

[2] = biological target: CXCR4 (Homo sapiens, UniProt P61073); assay: β-arrestin recruitment, 384-well, Tango CXCR4-bla U2OS cells, normalized to SDF-1α; format: cell-based; design: host or cells: U2OS; conditions: for Emax: U2OS; for ß-arrestin recruitment Emax (%): normalized to maximal SDF-1α response
Experimental: Tango™ CXCR4-bla U2OS Cells (Invitrogen; K1779) were used for (β-arrestin recruitment assays and maintained as a monolayer culture in McCoy's 5a (Corning; 10-050-CV) supplemented with 10% dialyzed Fetal Bovine Serum (Gibco; 26400-044), 0.1 mM MEM Non-essential amino acids solution, 25 mM HEPES solution (Corning; 25-060-CI), 1 mM Sodium Pyruvate (Gibco; 11360-070), 200 μg/mL Zeocin selection reagent (Gibco; R25001), 50 μg/mL Hygromycin B (Gibco, 10687010), and 100 μg/mL Geneticin (G418 Sulfate) (Gibco, 10131035). U2OS cells were subcultured twice weekly by 0.05% Trypsin-EDTA treatment (Corning; 25-051-CI) and passaged to continue exponential growth phase for cell signaling assays. All cell cultures were maintained in cell culture incubators at 37° C. with 5% CO2. CHO-K1 CXCR4 cells (DiscoverX, Fremont, CA, USA) were used for cAMP inhibition assays and maintained as a monolayer culture in DMEM/F12 (Corning; 10-091-CV) supplemented with 10% Fetal Bovine Serum (Corning; 35-011-CV) and 100IU penicillin, […] streptomycin sulfate (Corning; 30-002-CI) and […] G418 (Gibco; 101310350. Cells were subculture 2 times weekly by o.o5% Trypsin-EDTA treatment (Corning; 25-051-CI) and passaged to continue exponential growth phase for cell signaling assays. All cell cultures were maintained in cell culture incubators at 37° C. with 5% CO2.CEM-CCRF cells (ATCC CCL-119) were used in both the migration and calcium flux assays and were cultured in growth media consisting of RPMI 1640 (Corning; 10-040-CV) supplemented with 10% Fetal Bovine Serum (Corning; 35-011-CV), and 100 IU penicillin, […] streptomycin sulfate (Corning; 30-002-CI). Cells were maintained in suspension and sub-cultured twice weekly to maintain cell densities between 0.8×10^6 cells/mL and 2.5×10^6 cells/mL to maintain exponential growth phase. Cells were harvested for use in migration and calcium flux assays at 2.0×10^6 cells/mL to 2.5×10^6 cells/mL and resuspended in assay media to desired density for respective experiments.
Tango™ CXCR4-bla U2OS Cells were resuspended in assay media consisting of DMEM (Corning; Corning, NY) supplemented with 1% dialyzed Fetal bovine serum, 0.1 mM MEM Non-essential amino acids solution, 25 mM HEPES solution (Corning; Corning, NY), 1 mM Sodium Pyruvate and 100 IU penicillin, […] streptomycin sulfate (Corning; Corning, NY) at a density of 3.0×10^5 cells/ml. Assay media FreeStyle 293 expression Medium (Gibco; 12338018) was used for testing the thiadiazine scaffold CXCR4 agonists. Cells suspension was dispensed at 30 μl per well into assay plate and incubated overnight in a cell culture incubator at 37° C. with 5% CO2. […] Following overnight incubation, LiveBlazer FRET B/G Loading Kit (Invitrogen; K1095) working reagent was prepared according to supplier guidelines and 6 μl of solution was dispensed into each well; 8 μL of solution for testing the thiadiazine scaffold CXCR4 agonists. Assay plate was covered and incubated in a dark place for two hours and Fluorescence Intensity was measured using the BMG LABTECH CLARIOstar Plus (BMG LABTECH Inc., Cary, NC) according to the LiveBlazer FRET B/G Loading Kit excitation and emission measurement guidelines.
Results are expressed as mean±SD for 3 to 5 independent experiments. Statistically significant differences in gene expression between two groups were assessed by Student's T-test, ANOVA with an appropriate post hoc test was be used for multiple comparisons. P<0.05 was considered to be statistically significant. All concentration response curves were analyzed to determine EC50 and Emax using the following equation:
where Y is the normalized response (0-100%), X is the log of concentration of compound tested, and the Hill slope is equal to 1.0% and 100% activity are specific to each assay. […]

[3] = Homo sapiens, read-out: Migration CEM EC50
[4] = normalized to SDF-1, read-out: TANGO β-arrestin EC50
[5] = Homo sapiens, read-out: Migration CEM EC50 (μM)
[6] = normalized to SDF-1, read-out: TANGO β-arrestin Emax (%)
[7] = normalized to SDF-1α, read-out: ß-arrestin recruitment EC50

Sequence of CXCR4 (P61073 whole entry): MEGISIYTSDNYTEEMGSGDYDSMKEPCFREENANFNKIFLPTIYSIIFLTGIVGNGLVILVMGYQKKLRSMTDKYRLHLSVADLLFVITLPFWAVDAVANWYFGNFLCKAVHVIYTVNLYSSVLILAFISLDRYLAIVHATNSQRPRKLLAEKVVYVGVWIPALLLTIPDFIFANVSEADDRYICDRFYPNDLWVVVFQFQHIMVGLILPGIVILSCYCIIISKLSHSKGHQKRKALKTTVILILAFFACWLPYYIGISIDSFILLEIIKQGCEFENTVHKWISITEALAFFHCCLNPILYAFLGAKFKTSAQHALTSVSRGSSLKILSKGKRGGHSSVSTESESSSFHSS

EC50 [1, 3] | TANGO β-arrestin Emax (%) ([2]; normalized to SDF-1) | EC50 [2, 4] | Emax [2, 6] | EC50 ([1]; read-out: Migration CEM EC50) | Structure (SMILES) | Migration CEM Emax (%) [1] | Emax ([1]; Homo sapiens) | also measured
< 5 µM |  | < 5 µM | > 70% |  | COc1ccccc1-c1nnc2n1N=C(c1ccc(SC)cc1)CS2 [Entry 12] |  | 35 to 70% | 
< 5 µM |  | < 5 µM | > 70% |  | COc1ccccc1-c1nnc2n1N=C(c1ccc(N(C)C)cc1)CS2 [Entry 13] |  | 35 to 70% | Emax ([2]; read-out: ß-arrestin recruitment Emax (%)): 91%; EC50 [2, 7]: 0.06 µM
 | A (A ≥ 70) | 5 to 50 µM |  | 5 to 50 µM | COc1ccccc1-c1nnc2n1N=C(c1ccc(N3CCOCC3)cc1)CS2 [Entry 16] | A (A ≥ 70) |  | 
> 10 µM |  | > 10 µM |  |  | CCOc1ccccc1-c1nnc2n1N=C(c1ccc(N3CCCCC3)cc1)CS2 [Entry 27] |  |  | 
 | A (A ≥ 70) | < 5 µM |  | 5 to 50 µM | CCOc1ccccc1-c1nnc2n1N=C(c1ccc3c(c1)CCCN3)CS2 [Entry 29] | C (C ≤ 35) |  | 
 | C (C ≤ 35) | < 5 µM |  | > 10 µM | CCOc1ccccc1-c1nnc2n1N=C(c1ccc(NC(C)=O)cc1)CS2 [Entry 30] |  |  | EC50 [2, 7]: > 10 µM
 |  | > 10 µM |  | > 10 µM | CCOc1ccccc1-c1nnc2n1N=C(c1ccc(NC(=O)C(C)C)cc1)CS2 [Entry 31] |  |  | EC50 [2, 7]: > 10 µM
 | A (A ≥ 70) | < 5 µM |  | < 5 µM | CCOc1ccccc1-c1nnc2n1N=C(c1ccc(NC(=O)C3CC3)cc1)CS2 [Entry 32] | C (C ≤ 35) |  | 
< 5 µM |  | < 5 µM | 35 to 70% |  | CCOc1ccccc1-c1nnc2n1N=C(c1ccc(NC(=O)c3ccccc3)cc1)CS2 [Entry 34] |  | < 35% | 
> 10 µM |  | > 10 µM |  |  | CCOc1ccccc1-c1nnc2n1N=C(c1ccc(NC(=O)c3ccccc3C(=O)O)cc1)CS2 [Entry 35] |  |  | 
> 10 µM |  | > 10 µM |  |  | CCOc1ccccc1-c1nnc2n1N=C(c1ccc(NC(=O)c3cccc(C(=O)OC)c3)cc1)CS2 [Entry 36] |  |  | 
> 10 µM |  | > 10 µM |  |  | CCOc1ccccc1-c1nnc2n1N=C(c1ccc(NC(=O)c3ccc(C(=O)OC)cc3)cc1)CS2 [Entry 37] |  |  | 
 | C (C ≤ 35) | < 5 µM |  | 5 to 50 µM | CCOC(=O)CNc1ccc(C2=Nn3c(nnc3-c3ccccc3OCC)SC2)cc1 [Entry 40] | C (C ≤ 35) |  | EC50 [2, 7]: > 5 µM
< 5 µM |  | < 5 µM | 35 to 70% |  | CCOC(=O)CCNc1ccc(C2=Nn3c(nnc3-c3ccccc3OCC)SC2)cc1 [Entry 41] |  | < 35% | 
 | C (C ≤ 35) | < 5 µM |  |  | C#CCCCNc1ccc(C2=Nn3c(nnc3-c3ccccc3OCC)SC2)cc1 [Entry 43] | C (C ≤ 35) |  | 
 | C (C ≤ 35) | < 5 µM |  | < 5 µM | CCOc1ccccc1-c1nnc2n1N=C(c1ccc(NC3CCCC3)cc1)CS2 [Entry 45] | C (C ≤ 35) |  | EC50 [2, 7]: 1.4 µM; ß-arrestin recruitment Emax (%) [2]: 31%
 | C (C ≤ 35) | < 5 µM |  | < 5 µM | CCOc1ccccc1-c1nnc2n1N=C(c1ccc(NC3CCCCC3)cc1)CS2 [Entry 46] | C (C ≤ 35) |  | EC50 [2, 7]: 0.77 µM; ß-arrestin recruitment Emax (%) [2]: 10%
> 10 µM |  | > 10 µM |  |  | CCOc1ccccc1-c1nnc2n1N=C(c1ccc(NCc3ccccc3)cc1)CS2 [Entry 47] |  |  | 
> 10 µM |  | < 5 µM | < 35% |  | CCOc1ccccc1-c1nnc2n1N=C(c1ccc(NCC3CC3)cc1)CS2 [Entry 48] |  |  | 
 |  | > 10 µM |  | > 10 µM | CCOc1ccccc1-c1nnc2n1N=C(c1ccc(NCC3CCCC3)cc1)CS2 [Entry 49] |  |  | 
 |  | < 5 µM | < 35% |  | CCOc1ccccc1-c1nnc2n1N=C(c1ccc(N3CCCC3=O)cc1)CS2 [Entry 63] |  | 35 to 70% | 
 | C (C ≤ 35) | > 10 µM |  | < 5 µM | CCOC(=O)C1CCN(c2ccc(C3=Nn4c(nnc4-c4ccccc4OCC)SC3)cc2)C1 (stereo not shown) [Entry 66] | B (35 < B < 70) |  | 
< 5 µM |  | < 5 µM | < 35% |  | CCOc1ccccc1-c1nnc2n1N=C(c1ccc(C(=O)Nc3ccccc3)cc1)CS2 [Entry 69] |  | 35 to 70% | 
< 5 µM |  | > 10 µM |  |  | CCOc1ccccc1-c1nnc2n1N=C(c1ccc(C(=O)O)cc1)CS2 [Entry 70] |  | 35 to 70% | 
< 5 µM |  | < 5 µM | < 35% |  | CCOc1ccccc1-c1nnc2n1N=C(c1ccc(C(=O)OC)cc1)CS2 [Entry 71] |  | 35 to 70% | 
< 5 µM |  | < 5 µM | < 35% |  | COc1ccc(OC)c(-c2nnc3n2N=C(c2ccc(N4CCC4)cc2)CS3)c1 [Entry 80] |  | 35 to 70% | 

Structure (SMILES) | EC50 [1, 3] | TANGO β-arrestin Emax (%) ([2]; normalized to SDF-1) | EC50 [2, 4] | Emax [2, 6] | EC50 ([1]; read-out: Migration CEM EC50) | Migration CEM Emax (%) [1] | Emax ([1]; Homo sapiens) | also measured
C=CCOc1ccc(C2=Nn3c(nnc3-c3ccccc3OCC)SC2)cc1 [Entry 7] | < 5 µM | A (A ≥ 70) | < 5 µM |  |  | A (A ≥ 70) |  | 
COCCOc1ccc(C2=Nn3c(nnc3-c3ccccc3OC)SC2)cc1 [Entry 8] |  |  | < 5 µM | < 35% |  |  | < 35% | EC50 [1, 5]: < 5 µM
CCOc1ccccc1-c1nnc2n1N=C(c1ccc(OC(F)(F)F)cc1)CS2 [Entry 10] |  |  | < 5 µM | > 70% |  |  | > 70% | EC50 [1, 5]: 5 to 50 µM
CCOc1ccccc1-c1nnc2n1N=C(c1ccc(OC(F)F)cc1)CS2 [Entry 11] |  |  | < 5 µM | 35 to 70% |  |  | > 70% | EC50 [1, 5]: < 5 µM
CCOc1ccccc1-c1nnc2n1N=C(c1ccc(N3CCCC3)cc1)CS2 [Entry 14] | < 5 µM |  | < 5 µM | > 70% |  | B (35 < B < 70) |  | 
CCOc1ccccc1-c1nnc2n1N=C(c1ccc(N3CCCC3)cc1)CS2 [Entry 15] |  | A (A ≥ 70) | < 5 µM |  | < 5 µM | A (A ≥ 70) |  | 
